What is called IC50 is the concentration that inhibits the measured activity by half.

SMILES strings stand for the structures. Where two headings read alike, the source gives them in different places.

The target in this experiment is T1, HDM2 (Homo sapiens, UniProt Q00987).
T1 construct: Thioredoxin (N); made in house; host or cells: E. coli strain BL21(DE3)Rosetta
The experiment in a line: HDM2 FRET assay (inhibition of binding of FITC labeled p53-pocket peptide to HDM2). The procedure, abridged:
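TR-FRET with 0.5 nM His-tagged recombinant HDM2, 3 nM FITC-labelled p53 peptide and 0.25 nM Tb-anti-His antibody in PBS, 0.01% BSA, 0.01% Tween-20, 0.1% DMSO. IC50 from em520/em495 ratio over 10-point dilutions, 4-parameter logistic fit.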

Where [1] appears, read: 0.5 nM HDM2 (residues 17 to 125), 3nM peptide, two hour incubation at room temperature, read-out: FRET IC50.

T1 sequence (Q00987 17-125): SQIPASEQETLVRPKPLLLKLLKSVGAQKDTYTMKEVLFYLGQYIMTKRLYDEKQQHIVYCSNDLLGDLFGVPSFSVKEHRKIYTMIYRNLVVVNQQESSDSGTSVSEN

`C[C@@H](Nc1nc(-c2noc(=O)[nH]2)nc2nc(NCc3c[nH]nc3-c3ccccc3)n(C[C@H]3CC[C@H](C)CC3)c12)C1CCC1` [Example 11.112, 3-(6-{[(1R)-1-cyclobutylethyl]amino}-7-[(trans-4-methylcyclohexyl)methyl]-8-{[(3-phenyl-1H-pyrazol-4-yl)methyl]amino}-7H-purin-2-yl)-1,2,4-oxadiazol-5(2H)-one]: the half-maximal inhibitory concentration (IC50) (Table 11, read-out: FRET IC50) was found to be 215 nM.

For the molecule `C[C@@H](Nc1nc(-c2noc(=O)[nH]2)nc2nc(C3=C(c4ccccc4)CCCC3)n(C[C@H]3CC[C@H](C)CC3)c12)C1CCC1` [Example 21.16, 3-[6-{[(1R)-1-cyclobutylethyl]amino}-7-[(trans-4-methylcyclohexyl)methyl]-8-(2-phenylcyclohex-1-en-1-yl)-7H-purin-2-yl]-1,2,4-oxadiazol-5(4H)-one], the IC50 (Table 21, read-out: FRET IC50) was determined as 12.2 nM.

In the case of `C[C@@H](Nc1nc(C(=O)O)nc2nc(C(=O)NCc3ccccc3)n(Cc3ccc(C(F)(F)F)cc3)c12)C1CCC1` [Example 10.18, (R)-8-(Benzylcarbamoyl)-6-((1-cyclobutylethyl)amino)-7-(4-(trifluoromethyl)benzyl)-7H-purine-2-carboxylic acid], where the note is “Table 10, read-out: FRET IC50”, the half-maximal inhibitory concentration (IC50) was 58.9 nM.

Regarding `Cc1cccc(-c2nc3nc(C(=O)O)nc(N[C@@H](C)C(C)C)c3n2Cc2ccc(C(F)(F)F)cc2)c1` [Example 6.49, 6-{[(1S)-1,2-dimethylpropyl]amino}-8-(3-methylphenyl)-7-[4-(trifluoromethyl)benzyl]-7H-purine-2-carboxylic acid], under “Table 6, read-out: FRET IC50”, the IC50 turned out to be 622 nM.

Regarding `C[C@@H](Nc1nc(-c2noc(=O)[nH]2)nc2nc(C3(c4ccc(F)cc4)CC3)n(C[C@H]3CC[C@H](C)CC3)c12)C1CCC1` [Example 22.30, 3-(6-{[(1R)-1-cyclobutylethyl]amino}-8-[1-(4-fluorophenyl)cyclopropyl] -7-[(trans-4-methylcyclohexyl)methyl] -7H-purin-2-yl)-1,2,4-oxadiazol-5(4H)-one], the IC50 (Table 22, read-out: FRET IC50) stood at 10.1 nM.

Take `Cc1cccc(-c2nc3nc(C(=O)O)nc(N[C@@H](C)C4CCCCC4)c3n2Cc2ccc(C(F)(F)F)cc2)c1` [Example 6.45, 6-{[(1S)-1-cyclohexylethyl]amino}-8-(3-methylphenyl)-7-[4-(trifluoromethyl)benzyl]-7H-purine-2-carboxylic acid]: the IC50 (Table 6, read-out: FRET IC50) was determined as 1610 nM.

Take `CCC(C)CN(C)c1nc(C(=O)O)nc2nc(-c3cccc(C)c3)n(Cc3ccc(C(F)(F)F)cc3)c12` (stereo not shown) [Example 6.89, 6-[methyl(2-methylbutyl)amino]-8-(3-methylphenyl)-7-[4-(trifluoromethyl)benzyl]-7H-purine-2-carboxylic acid]: under “Table 6, read-out: FRET IC50”, the half-inhibitory concentration (IC50) was determined as 730 nM.

In the case of `Cc1cccc(-c2nc3nc(C(=O)O)nc(N[C@@H](C)c4cccc(Cl)c4)c3n2Cc2ccc(C(F)(F)F)cc2)c1` [Example 6.26, 6-{[(1S)-1-(3-chlorophenyl)ethyl]amino}-8-(3-methylphenyl)-7-[4-(trifluoromethyl)benzyl]-7H-purine-2-carboxylic acid], the concentration for half-maximal inhibition (IC50) (Table 6, read-out: FRET IC50) was found to be 6970 nM.

For `COC1(c2nc3nc(-c4noc(=O)[nH]4)nc(-c4cncc(Cl)c4)c3n2C[C@H]2CC[C@H](C)CC2)CCC1` [Example 23.62, 3-{6-(5-chloropyridin-3-yl)-8-(1-methoxycyclobutyl)-7-[(trans-4-methylcyclohexyl)methyl] -7H-purin-2-yl}-1,2,4-oxadiazol-5(4H)-one], under “Table 23, read-out: FRET IC50”, the concentration for half-maximal inhibition (IC50) is 13.1 nM.

Regarding `CC[C@H](Nc1nc2nc(C(=O)O)nc(N[C@H](C)C3CCC3)c2n1Cc1ccc(C(F)(F)F)cc1)c1ccccc1` [Example 9.36, 6-{[(1R)-1-cyclobutylethyl]amino}-8-{[(1S)-1-phenylpropyl]amino}-7-[4-(trifluoromethyl)benzyl]-7H-purine-2-carboxylic acid], the IC50 (Table 9, read-out: FRET IC50) came to 0.862 nM.

Regarding `Cc1cccc(-c2nc(-c3n[nH]c(=O)o3)nc3nc(N4CCOC[C@H]4C)n(C[C@H]4CC[C@H](C)CC4)c23)c1` [Example 16.32, 5-{7-[(trans-4-methylcyclohexyl)methyl]-8-[(3R)-3-methylmorpholin-4-yl]-6-(3-methylphenyl)-7H-purin-2-yl} -1,3,4-oxadiazol-2(3H)-one], under setting [1], the IC50 turned out to be 60.5 nM.

For the molecule `C[C@@H](Nc1nc(-c2noc(=O)[nH]2)nc2nc(C(F)(F)c3ccccc3)n(C[C@H]3CC[C@H](C)CC3)c12)C1CCC1` [Example 22.79, 3-(6-{[(1R)-1-cyclobutylethyl]amino}-8-[difluoro(phenyl)methyl]-7-[(trans-4-methylcyclohexyl)methyl]-7H-purin-2-yl)-1,2,4-oxadiazol-5(4H)-one], the concentration for half-maximal inhibition (IC50) (Table 22, read-out: FRET IC50) is 3.36 nM.

Turning to `C[C@@H](Nc1nc(C(=O)O)nc2nc(N3CCC4CCCCC4C3)n(C[C@H]3CC[C@H](C)CC3)c12)C1CCC1` (stereo partly drawn) [Example 11.22, 6-{[(1R)-1-cyclobutylethyl]amino}-7-[(trans-4-methylcyclohexyl)methyl]-8-(octahydroisoquinolin-2(1H)-yl)-7H-purine-2-carboxylic acid], the IC50 (Table 11, read-out: FRET IC50) amounted to 18 nM.

In the case of `CC1CCCN1c1nc2nc(-c3noc(=O)[nH]3)nc(N[C@H](C)C3CCC3)c2n1C[C@H]1CC[C@H](C)CC1` (stereo partly drawn) [Example 11.34, 3-[6-{[(1R)-1-cyclobutylethyl]amino}-7-[(trans-4-methylcyclohexyl)methyl]-8-(2-methylpyrrolidin-1-yl)-7H-purin-2-yl]-1,2,4-oxadiazol-5(2H)-one], the IC50 (Table 11, read-out: FRET IC50) worked out at 25.4 nM.

As for `C[C@@H](Nc1nc(-c2noc(=O)[nH]2)nc2nc(C(C)(O)c3ccncc3)n(C[C@H]3CC[C@H](C)CC3)c12)C1CCC1` (stereo partly drawn) [Example 22.36, 3-(6-{[(1R)-1-cyclobutylethyl]amino}-8-(1-hydroxy-1-pyridin-4-ylethyl)-7-[(trans-4-methylcyclohexyl)methyl] -7H-purin-2-yl)-1,2,4-oxadiazol-5(4H)-one], the IC50 (Table 22, read-out: FRET IC50) worked out at 13.6 nM.

Regarding `C[C@@H](Nc1nc(C(=O)O)nc2nc(N[C@@H](CO)c3ccccc3)n(Cc3ccc(C(F)(F)F)cc3)c12)C1CCC1` [Example 9.6, 6-{[(1R)-1-cyclobutylethyl]amino}-8-{[(1R)-2-hydroxy-1-phenylethyl]amino}-7-[4-(trifluoromethyl)benzyl]-7H-purine-2-carboxylic acid], the concentration for half-maximal inhibition (IC50) (Table 9, read-out: FRET IC50) was 1.47 nM.

As to `COc1ccc(C)cc1-c1nc2nc(C(=O)O)nc(N[C@H](C)C3CC3(F)F)c2n1Cc1ccc(C(F)(F)F)cc1` (stereo partly drawn) [Example 7.19, 6-{[(1R)-1-(2,2-difluorocyclopropyl)ethyl]amino}-8-(2-methoxy-5-methylphenyl)-7-[4-(trifluoromethyl)benzyl]-7H-purine-2-carboxylic acid], the IC50 (Table 7, read-out: FRET IC50) came to 772 nM.

Regarding `C[C@@H](Nc1nc(C(=O)O)nc2nc(N3C4CCC3COC4)n(Cc3ccc(C(F)(F)F)cc3)c12)C1CCC1` [Example 9.76, 6-{[(1R)-1-cyclobutylethyl]amino}-8-(3-oxa-8-azabicyclo[3.2.1]oct-8-yl)-7-[4-(trifluoromethyl)benzyl]-7H-purine-2-carboxylic acid], the IC50 (FRET IC50) turned out to be 15.9 nM.

On to `COc1cccc(C2CCCCN2c2nc3nc(C(=O)O)nc(N[C@H](C)C4CCC4)c3n2C[C@H]2CC[C@H](C)CC2)c1` (stereo partly drawn) [Example 11.31, 6-{[(1R)-1-cyclobutylethyl]amino}-8-[2-(3-methoxyphenyl)piperidin-1-yl]-7-[(trans-4-methylcyclohexyl)methyl]-7H-purine-2-carboxylic acid], for which, for the setting “Table 11, read-out: FRET IC50”, the IC50 stood at 2.26 nM.

On to `COCC1COCCN1c1nc2nc(-c3noc(=O)[nH]3)nc(N[C@H](C)C3CCC3)c2n1C[C@H]1CC[C@H](C)CC1` (single isomer, unassigned) [Example 11.151], for which the IC50 (Table 11, read-out: FRET IC50) amounted to 20.9 nM.

For the molecule `CC[C@H](Nc1nc(C(=O)O)nc2nc(-c3cc(C(C)C)ccn3)n(Cc3ccc(C(F)(F)F)cc3)c12)C1CCC1` [Example 6.54, 6-{[(1S)-1-cyclobutylpropyl]amino}-8-[4-(1-methylethyl)pyridin-2-yl]-7-[4-(trifluoromethyl)benzyl]-7H-purine-2-carboxylic acid], the 50% inhibitory concentration (IC50) (Table 6, read-out: FRET IC50) amounted to 203 nM.

Regarding `C[C@@H](Nc1nc(C(=O)O)nc2nc(N3CCOC[C@H]3c3ccccc3)n(C[C@H]3CC[C@H](C)CC3)c12)C1CCC1` [Example 11.10, 6-{[(1R)-1-cyclobutylethyl]amino}-7-[(trans-4-methylcyclohexyl)methyl]-8-[(3R)-3-phenylmorpholin-4-yl]-7H-purine-2-carboxylic acid], the IC50 (Table 11, read-out: FRET IC50) turned out to be 0.202 nM.

Turning to `CCN(CC1CCCCC1)c1nc2nc(-c3noc(=O)[nH]3)nc(N[C@H](C)C3CCC3)c2n1Cc1ccc(C(F)(F)F)cc1` [Example 9.95, 3-(6-{[(1R)-1-cyclobutylethyl]amino}-8-[(cyclohexylmethyl)(ethyl)amino]-7-[4-(trifluoromethyl)benzyl]-7H-purin-2-yl)-1,2,4-oxadiazol-5(4H)-one], the concentration for half-maximal inhibition (IC50) (Table 9, read-out: FRET IC50) came out at 27.2 nM.

In the case of `C[C@H]1CC[C@H](Cn2c(N3CCOC[C@H]3c3ccccc3)nc3nc(-c4noc(=O)[nH]4)nc(-c4cc(Cl)ccc4F)c32)CC1` [Example 16.25, 3-{6-(5-chloro-2-fluorophenyl)-7-[(trans-4-methylcyclohexyl)methyl]-8-[(3R)-3-phenylmorpholin-4-yl]-7H-purin-2-yl} -1,2,4-oxadiazol-5(4H)-one], the IC50 under setting [1] amounted to 1.63 nM.

Consider `C[C@@H](Nc1nc(-c2noc(=O)[nH]2)nc2nc(N3CCO[C@H](C)[C@H]3c3ccccc3)n(C[C@H]3CC[C@H](C)CC3)c12)C1CCC1` [Example 11.165, 3-(6-{[(1R)-1-cyclobutylethyl]amino}-7-[(trans-4-methylcyclohexyl)methyl]-8-[(2R,3R)-2-methyl-3-phenylmorpholin-4-yl]-7H-purin-2-yl)-1,2,4-oxadiazol-5(4H)-one], for which the IC50 (Table 11, read-out: FRET IC50) was 0.767 nM.

The record behind these values is patent publication EP2951180B1, “2,6,7,8 SUBSTITUTED PURINES AS HDM2 INHIBITORS” (Merck Sharp & Dohme Corp., priority 2013, dated 2014).
